In brackets after ≈: the same amount, converted by molar mass.
How the values were obtained:
Type in all cases: functional
Settings in all cases: K12, 24 h
[1] = tested on: Escherichia coli; assay: Antibacterial activity against Escherichia coli K12 in tryptone broth after 24 hrs by broth dilution method
[2] = tested on: Escherichia coli; assay: Antibacterial activity against Escherichia coli K12 in M9 minimal medium after 24 hrs by broth dilution method
[3] = tested on: Escherichia coli; assay: Antibacterial activity against Escherichia coli K12 in M9 minimal medium after 24 hrs by broth dilution method in presence of beta-alanine
[4] = tested on: Escherichia coli; assay: Antibacterial activity against Escherichia coli K12 in M9 minimal medium after 24 hrs by broth dilution method in presence of pantothenate

Row | MIC [1] | MIC [2] | MIC [3] | MIC [4] | Compound
1 | > 500 µM | 500 µM (≈ 159 µg/mL) |  |  | CCC(=O)OCCNC(=O)CCNC(=O)[C@H](O)C(C)(C)CO
2 | > 500 µM | 15 µM (≈ 4.27 µg/mL) | > 500 µM | > 500 µM | C#CCCCNC(=O)CCNC(=O)[C@H](O)C(C)(C)CO
3 | > 500 µM | > 500 µM |  |  | CCOC(=O)NCCNC(=O)CCNC(=O)[C@H](O)C(C)(C)CO
4 | > 500 µM | > 500 µM |  |  | CCC(=O)NCCNC(=O)CCNC(=O)[C@H](O)C(C)(C)CO
5 | > 500 µM | 4 µM (≈ 1.03 µg/mL) | > 500 µM | > 500 µM | C#CCNC(=O)CCNC(=O)[C@H](O)C(C)(C)CO

The remaining lines, values behind:

Row | Compound | MIC [1] | MIC [2] | MIC [3] | MIC [4]
6 | C=CC(=O)NCCNC(=O)CCNC(=O)[C@H](O)C(C)(C)CO | > 500 µM | 500 µM (≈ 158 µg/mL) |  | 
7 | CC(C)(CO)[C@@H](O)C(=O)NCCC(=O)NCCN=[N+]=[N-] | > 500 µM | > 500 µM |  | 
8 | C#CCCC(=O)NCCNC(=O)CCNC(=O)[C@H](O)C(C)(C)CO | > 500 µM | > 500 µM |  | 
9 | C=CCNC(=O)CCNC(=O)[C@H](O)C(C)(C)CO | > 500 µM | 3 µM (≈ 0.775 µg/mL) | 125 µM | 250 µM
10 | C#CCCNC(=O)CCNC(=O)[C@H](O)C(C)(C)CO | > 500 µM | 7.5 µM (≈ 2.03 µg/mL) | > 500 µM | > 500 µM
11 | C#CCCCCNC(=O)CCNC(=O)[C@H](O)C(C)(C)CO | > 500 µM | 500 µM (≈ 149 µg/mL) |  | 
12 | C#CCNC(=O)[C@H](O)C(C)(C)CO | > 500 µM | 500 µM (≈ 92.6 µg/mL) |  | 
13 | CCCCCNC(=O)CCNC(=O)[C@H](O)C(C)(C)CO | 50 µM (≈ 14.4 µg/mL) | 6 µM (≈ 1.73 µg/mL) | 250 µM | 500 µM
14 | CCCNC(=O)CCNC(=O)[C@H](O)C(C)(C)CO | 500 µM (≈ 130 µg/mL) | 1 µM (≈ 0.26 µg/mL) | 250 µM | 500 µM
15 | C#CC(=O)NCCNC(=O)CCNC(=O)[C@H](O)C(C)(C)CO | > 500 µM | > 500 µM |  | 

— ChEMBL document CHEMBL1151784, “Antibiotic evaluation and in vivo analysis of alkynyl Coenzyme A antimetabolites in Escherichia coli” (2008)
